Results published in patent US11208405B2, “Pyrrole derivatives as PLK1 inhibitors” (SENTINEL ONCOLOGY LIMITED, priority 2017, dated 2021).
Where a name gives a salt, the structure may show the parent alone.

Tests used:
hERG ion channel = hERG ion channel (Homo sapiens, UniProt Q12809); experiment: Binding to the hERG ion channel
cytochrome P450 2C9 = cytochrome P450 2C9 (Homo sapiens, UniProt P11712); experiment: Cytochrome P450 inhibition, 2C9; assay type: in vitro ADME
[1] = test system: HCT116 cells (a mutant KRAS G-13D expressing cell line); experiment: Drug resistance studies in HCT116 cells; assay type: cell-based; conditions: five times the half maximal growth inhibiting amount, twenty two days
[2] = test system: glioblastoma cell line 907042; experiment: Glioblastoma cancer cell viability, cell line 907042; assay type: cell-based
Protocol: (§1) Assay to Measure the Effects of Compounds of the Invention on Glioblastoma Cancer Cell Viability
(§2) The compound of Example 33 was tested for inhibitory activity against the glioblastoma cell lines in Table 7 below.

[3] = test system: glioblastoma cell line 908144; experiment: Glioblastoma cancer cell viability, cell line 908144; assay type: cell-based
Protocol: as §1, §2

[4] = test system: glioblastoma cell line 907279; experiment: Glioblastoma cancer cell viability, cell line 907279; assay type: cell-based
Protocol: as §1, §2

AAK1 = target: T1, AAK1 (Homo sapiens, UniProt Q2M2I8); experiment: Kinase selectivity assay (DiscoverX KinomeScreen), AAK1; assay type: binding; conditions: AAK1, 5 μM; read-out: % Control
T1 construct: purchased DiscoverX
Protocol: (§3) The compound of Example 33 was tested for off-target activity against a panel of fifty five kinases bearing functional or structural similarity to PLK1 at a concentration of 5 μM using the DiscoverX KinomeScreen assay.

AURKB = target: T2, AURKB (Homo sapiens, UniProt Q96GD4); experiment: Kinase selectivity assay (DiscoverX KinomeScreen), AURKB; assay type: binding; conditions: read-out: % Control
T2 construct: purchased DiscoverX
Protocol: as §3

CDK2 = target: T3, CDK2 (Homo sapiens, UniProt P24941); experiment: Kinase selectivity assay (DiscoverX KinomeScreen), CDK2; assay type: binding; conditions: CDK2, 5 μM; read-out: % Control
T3 construct: purchased DiscoverX
Protocol: as §3

CSNK2A1 = target: T4, CSNK2A1 (Homo sapiens, UniProt P68400); experiment: Kinase selectivity assay (DiscoverX KinomeScreen), CSNK2A1; assay type: binding; conditions: CSNK2A1, 5 μM; read-out: % Control
T4 construct: purchased DiscoverX
Protocol: as §3

CSNK2A2 = target: T5, CSNK2A2 (Homo sapiens, UniProt P19784); experiment: Kinase selectivity assay (DiscoverX KinomeScreen), CSNK2A2; assay type: binding; conditions: CSNK2A2, 5 μM; read-out: % Control
T5 construct: purchased DiscoverX
Protocol: as §3

ERN1 = target: T6, ERN1 (Homo sapiens, UniProt O75460); experiment: Kinase selectivity assay (DiscoverX KinomeScreen), ERN1; assay type: binding; conditions: ERN1, 5 μM; read-out: % Control
T6 construct: purchased DiscoverX
Protocol: as §3

CHUK = target: T7, CHUK (Homo sapiens, UniProt O15111); experiment: Kinase selectivity assay (DiscoverX KinomeScreen), CHUK; assay type: binding; conditions: read-out: % Control
T7 construct: purchased DiscoverX
T7 sequence (O15111 whole entry): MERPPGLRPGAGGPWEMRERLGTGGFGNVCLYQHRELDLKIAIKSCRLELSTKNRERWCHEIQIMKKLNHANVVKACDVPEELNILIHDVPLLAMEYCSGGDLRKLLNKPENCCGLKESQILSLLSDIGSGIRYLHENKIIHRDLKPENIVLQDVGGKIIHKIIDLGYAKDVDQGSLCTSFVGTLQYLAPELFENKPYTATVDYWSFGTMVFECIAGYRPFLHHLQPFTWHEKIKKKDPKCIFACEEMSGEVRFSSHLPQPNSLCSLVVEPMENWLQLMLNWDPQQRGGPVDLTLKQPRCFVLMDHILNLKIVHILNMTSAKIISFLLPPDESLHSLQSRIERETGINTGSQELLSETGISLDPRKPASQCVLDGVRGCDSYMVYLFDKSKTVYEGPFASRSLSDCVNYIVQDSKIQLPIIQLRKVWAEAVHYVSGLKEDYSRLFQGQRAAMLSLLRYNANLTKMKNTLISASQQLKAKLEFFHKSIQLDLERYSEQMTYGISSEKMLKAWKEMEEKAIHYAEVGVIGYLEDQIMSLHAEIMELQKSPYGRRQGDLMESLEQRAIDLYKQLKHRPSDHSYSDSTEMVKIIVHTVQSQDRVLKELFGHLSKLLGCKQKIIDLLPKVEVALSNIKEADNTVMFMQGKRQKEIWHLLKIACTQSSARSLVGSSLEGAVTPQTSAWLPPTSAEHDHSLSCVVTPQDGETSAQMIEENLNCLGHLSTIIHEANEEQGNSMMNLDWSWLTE
Protocol: as §3

IKBKB = target: T8, IKBKB (Homo sapiens, UniProt O14920); experiment: Kinase selectivity assay (DiscoverX KinomeScreen), IKBKB; assay type: binding; conditions: read-out: % Control
T8 construct: purchased DiscoverX
Protocol: as §3

NEK4 = target: T9, NEK4 (Homo sapiens, UniProt P51957); experiment: Kinase selectivity assay (DiscoverX KinomeScreen), NEK4; assay type: binding; conditions: NEK4, 5 μM; read-out: % Control
T9 construct: purchased DiscoverX
T9 sequence (P51957 whole entry): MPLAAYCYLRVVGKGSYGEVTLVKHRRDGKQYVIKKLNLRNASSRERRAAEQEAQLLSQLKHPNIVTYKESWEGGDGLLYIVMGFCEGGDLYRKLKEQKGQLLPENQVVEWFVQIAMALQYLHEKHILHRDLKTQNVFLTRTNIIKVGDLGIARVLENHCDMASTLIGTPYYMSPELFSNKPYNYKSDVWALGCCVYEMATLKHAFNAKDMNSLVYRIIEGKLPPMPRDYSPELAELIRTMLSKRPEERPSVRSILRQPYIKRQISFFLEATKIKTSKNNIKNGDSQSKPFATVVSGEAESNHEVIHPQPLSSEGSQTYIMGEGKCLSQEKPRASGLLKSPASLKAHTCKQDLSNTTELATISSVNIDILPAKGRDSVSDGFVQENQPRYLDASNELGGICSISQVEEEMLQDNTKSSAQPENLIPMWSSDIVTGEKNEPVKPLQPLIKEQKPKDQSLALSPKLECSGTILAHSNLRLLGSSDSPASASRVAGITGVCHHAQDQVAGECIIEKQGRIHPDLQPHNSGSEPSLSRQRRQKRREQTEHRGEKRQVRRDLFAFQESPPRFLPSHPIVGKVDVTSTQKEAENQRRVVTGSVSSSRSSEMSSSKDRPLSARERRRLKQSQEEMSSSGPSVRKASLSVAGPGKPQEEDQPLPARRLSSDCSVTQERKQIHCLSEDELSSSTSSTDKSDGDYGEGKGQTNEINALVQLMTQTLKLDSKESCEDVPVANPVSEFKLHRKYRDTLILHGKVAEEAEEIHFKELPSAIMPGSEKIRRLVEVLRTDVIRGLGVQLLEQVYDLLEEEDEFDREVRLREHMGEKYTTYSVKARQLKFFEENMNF
Protocol: as §3

NEK7 = target: T10, NEK7 (Homo sapiens, UniProt Q8TDX7); experiment: Kinase selectivity assay (DiscoverX KinomeScreen), NEK7; assay type: binding; conditions: NEK7, 5 μM; read-out: % Control
T10 construct: purchased DiscoverX
Protocol: as §3

PKMYT1 = target: T11, PKMYT1 (Homo sapiens, UniProt Q99640); experiment: Kinase selectivity assay (DiscoverX KinomeScreen), PKMYT1; assay type: binding; conditions: PKMYT1, 5 μM; read-out: % Control
T11 construct: purchased DiscoverX
Protocol: as §3

TBK1 = target: T12, TBK1 (Homo sapiens, UniProt Q9UHD2); experiment: Kinase selectivity assay (DiscoverX KinomeScreen), TBK1; assay type: binding; conditions: TBK1, 5 μM; read-out: % Control
T12 construct: purchased DiscoverX
Protocol: as §3

ULK1 = target: T13, ULK1 (Homo sapiens, UniProt O75385); experiment: Kinase selectivity assay (DiscoverX KinomeScreen), ULK1; assay type: binding; conditions: ULK1, 5 μM; read-out: % Control
T13 construct: purchased DiscoverX
T13 sequence (O75385 whole entry): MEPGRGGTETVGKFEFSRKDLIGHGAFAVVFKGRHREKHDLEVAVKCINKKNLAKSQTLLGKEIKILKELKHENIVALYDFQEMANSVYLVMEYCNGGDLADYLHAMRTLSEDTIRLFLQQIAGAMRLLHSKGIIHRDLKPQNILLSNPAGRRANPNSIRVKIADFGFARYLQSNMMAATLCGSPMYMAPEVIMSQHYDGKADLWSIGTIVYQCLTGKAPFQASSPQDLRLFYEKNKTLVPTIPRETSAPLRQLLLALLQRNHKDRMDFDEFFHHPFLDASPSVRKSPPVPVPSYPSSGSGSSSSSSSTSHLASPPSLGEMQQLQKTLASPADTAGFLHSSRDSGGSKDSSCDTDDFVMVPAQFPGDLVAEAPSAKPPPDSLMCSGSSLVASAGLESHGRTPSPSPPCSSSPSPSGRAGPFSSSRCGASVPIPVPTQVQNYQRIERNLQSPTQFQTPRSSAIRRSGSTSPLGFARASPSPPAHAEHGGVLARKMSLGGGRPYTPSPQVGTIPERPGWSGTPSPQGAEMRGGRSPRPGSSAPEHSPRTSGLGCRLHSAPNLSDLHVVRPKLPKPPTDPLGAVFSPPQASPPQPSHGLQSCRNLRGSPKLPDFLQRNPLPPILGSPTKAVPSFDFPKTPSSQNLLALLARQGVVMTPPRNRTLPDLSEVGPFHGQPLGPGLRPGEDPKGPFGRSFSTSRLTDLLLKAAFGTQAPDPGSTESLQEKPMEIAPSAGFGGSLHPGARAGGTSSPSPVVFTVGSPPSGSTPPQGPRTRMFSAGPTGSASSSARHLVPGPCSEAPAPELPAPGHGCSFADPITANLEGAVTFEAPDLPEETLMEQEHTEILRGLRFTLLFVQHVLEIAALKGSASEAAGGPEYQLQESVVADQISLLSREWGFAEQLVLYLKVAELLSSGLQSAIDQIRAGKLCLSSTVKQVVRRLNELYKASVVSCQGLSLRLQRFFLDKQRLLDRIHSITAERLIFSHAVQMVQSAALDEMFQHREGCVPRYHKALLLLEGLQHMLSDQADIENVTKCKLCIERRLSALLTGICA
Protocol: as §3

WNK1 = target: T14, WNK1 (Homo sapiens, UniProt Q9H4A3); experiment: Kinase selectivity assay (DiscoverX KinomeScreen), WNK1; assay type: binding; conditions: WNK1, 5 μM; read-out: % Control
T14 construct: purchased DiscoverX
T14 sequence (Q9H4A3 whole entry): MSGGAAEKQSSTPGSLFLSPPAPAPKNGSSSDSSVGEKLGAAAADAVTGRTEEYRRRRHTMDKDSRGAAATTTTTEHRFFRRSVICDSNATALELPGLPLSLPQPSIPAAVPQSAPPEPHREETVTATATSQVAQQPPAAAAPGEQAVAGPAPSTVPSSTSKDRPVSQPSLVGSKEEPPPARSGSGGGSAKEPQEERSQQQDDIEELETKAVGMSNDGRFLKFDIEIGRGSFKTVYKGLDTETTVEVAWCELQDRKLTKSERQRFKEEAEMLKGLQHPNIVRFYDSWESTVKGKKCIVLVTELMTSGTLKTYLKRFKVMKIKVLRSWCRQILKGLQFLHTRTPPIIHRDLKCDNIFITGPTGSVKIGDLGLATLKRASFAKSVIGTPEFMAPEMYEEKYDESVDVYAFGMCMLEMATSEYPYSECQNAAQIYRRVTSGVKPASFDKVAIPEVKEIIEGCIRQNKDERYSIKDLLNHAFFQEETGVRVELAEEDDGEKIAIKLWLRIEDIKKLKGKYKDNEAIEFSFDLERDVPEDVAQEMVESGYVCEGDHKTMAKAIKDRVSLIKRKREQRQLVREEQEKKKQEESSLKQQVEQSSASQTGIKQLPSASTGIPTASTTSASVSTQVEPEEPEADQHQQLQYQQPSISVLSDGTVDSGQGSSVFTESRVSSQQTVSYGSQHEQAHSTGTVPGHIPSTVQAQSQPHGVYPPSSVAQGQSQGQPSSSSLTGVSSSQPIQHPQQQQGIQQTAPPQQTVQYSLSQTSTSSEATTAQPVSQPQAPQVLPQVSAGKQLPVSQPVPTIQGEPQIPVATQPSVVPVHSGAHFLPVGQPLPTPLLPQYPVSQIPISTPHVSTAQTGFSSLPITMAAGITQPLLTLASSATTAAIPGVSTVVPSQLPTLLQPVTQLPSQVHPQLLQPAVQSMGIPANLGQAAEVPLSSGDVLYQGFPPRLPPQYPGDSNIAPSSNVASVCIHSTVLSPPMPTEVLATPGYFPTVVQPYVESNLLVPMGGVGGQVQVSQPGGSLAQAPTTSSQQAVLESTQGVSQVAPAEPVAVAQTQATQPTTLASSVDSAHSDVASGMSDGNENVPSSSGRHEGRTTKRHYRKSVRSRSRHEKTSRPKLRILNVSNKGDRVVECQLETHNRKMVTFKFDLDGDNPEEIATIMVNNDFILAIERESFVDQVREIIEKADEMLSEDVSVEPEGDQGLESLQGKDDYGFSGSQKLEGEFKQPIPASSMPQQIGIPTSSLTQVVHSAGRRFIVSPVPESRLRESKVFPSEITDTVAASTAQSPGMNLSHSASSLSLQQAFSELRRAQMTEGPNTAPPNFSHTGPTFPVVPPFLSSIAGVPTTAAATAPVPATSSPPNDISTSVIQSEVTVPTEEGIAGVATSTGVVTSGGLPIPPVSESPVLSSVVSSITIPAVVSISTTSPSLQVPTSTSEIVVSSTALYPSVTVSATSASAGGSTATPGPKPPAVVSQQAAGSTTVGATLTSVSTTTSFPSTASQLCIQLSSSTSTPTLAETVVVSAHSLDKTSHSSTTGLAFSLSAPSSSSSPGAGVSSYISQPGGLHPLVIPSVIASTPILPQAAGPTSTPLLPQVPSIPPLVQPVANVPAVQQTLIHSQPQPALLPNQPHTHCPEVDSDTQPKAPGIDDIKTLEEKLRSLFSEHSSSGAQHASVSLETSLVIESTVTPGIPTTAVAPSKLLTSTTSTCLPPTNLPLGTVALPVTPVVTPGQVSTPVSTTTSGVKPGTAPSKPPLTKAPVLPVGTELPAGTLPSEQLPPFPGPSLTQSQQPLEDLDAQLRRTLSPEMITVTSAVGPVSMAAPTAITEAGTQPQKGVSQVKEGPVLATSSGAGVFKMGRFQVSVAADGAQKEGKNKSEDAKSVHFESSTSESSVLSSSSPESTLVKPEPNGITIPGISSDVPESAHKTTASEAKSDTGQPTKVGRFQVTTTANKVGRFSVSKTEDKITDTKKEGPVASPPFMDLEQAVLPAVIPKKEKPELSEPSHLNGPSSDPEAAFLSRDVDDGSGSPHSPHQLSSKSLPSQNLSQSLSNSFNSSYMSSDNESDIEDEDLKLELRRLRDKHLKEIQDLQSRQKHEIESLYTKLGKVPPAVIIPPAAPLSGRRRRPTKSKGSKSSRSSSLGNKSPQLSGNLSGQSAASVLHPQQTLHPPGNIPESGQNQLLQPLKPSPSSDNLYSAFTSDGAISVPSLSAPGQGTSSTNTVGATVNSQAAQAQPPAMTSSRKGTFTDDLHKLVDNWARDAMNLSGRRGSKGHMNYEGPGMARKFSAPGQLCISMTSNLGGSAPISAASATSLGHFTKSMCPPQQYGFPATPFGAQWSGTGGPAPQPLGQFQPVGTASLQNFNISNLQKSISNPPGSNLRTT
Protocol: as §3

SMILES: CN(C)CCNC(=O)c1ccc(-c2ccc(-c3ccc(Cl)cc3)n2-c2ccccc2C(F)(F)F)cc1 [Example 33, 4-[5-(4-chlorophenyl)-1-[2-(trifluoromethyl)phenyl]pyrrol-2-yl]-N-[2-(dimethylamino)ethyl]benzamide Hydrochloride]
- binding to the hERG ion channel (hERG ion channel): > 25 µM
- cytochrome P450 inhibition 2C9 (cytochrome P450 2C9): > 10 µM
- formation of drug-resistant colonies [1]: not
- IC50 [2]: 0.071 µM
- IC50 [3]: 2.42 µM
- IC50 [4]: 27.8 µM
- remaining activity at 5 µM (AAK1): 100%
- remaining activity at 5 µM (AURKB): 95%
- remaining activity at 5 µM (CDK2): 89%
- remaining activity at 5 µM (CSNK2A1): 96%
- remaining activity at 5 µM (CSNK2A2): 92%
- remaining activity at 5 µM (ERN1): 74%
- remaining activity at 5 µM (CHUK): 100%
- remaining activity at 5 µM (IKBKB): 100%
- remaining activity at 5 µM (NEK4): 100%
- remaining activity at 5 µM (NEK7): 79%
- remaining activity at 5 µM (PKMYT1): 100%
- remaining activity at 5 µM (TBK1): 80%
- remaining activity at 5 µM (ULK1): 84%
- remaining activity at 5 µM (WNK1): 97%
